# Experiments:
# [1] = adjuvant-induced arthritis (AIA) model in rats, plasma KS level; type: in vivo, rat; settings: incadronate 1 mg/kg s.c. once a day from day 14; day 35 after adjuvant; BCD-4/MK-172 assay; vs AIA control group
# Procedure: (§1) In Example 5, 6-week-old male Lewis rats (SPF, Charles River Laboratories Japan, Inc.) were employed. The adjuvant was prepared by suspending heat-killed Mycobacterium butyricum (product of DIFCO) in liquid paraffin (product of Wako Pure Chemical Industries, Ltd.) at a concentration of 6 mg/mL. The adjuvant was subcutaneously administered to each of the rats in the right hind paw (0.3 mg/paw) without anesthesia. Fourteen days after administration, the rats were divided into 4 groups. To a non-treated normal control group, only liquid paraffin was administered to the rats in a similar manner. From the timing of the grouping, incadronate (Bisphonal (registered trademark) injection (10 mg), product of Astellas Pharma Inc.) was subcutaneously administered to the rats every day (once a day) at a dose of 1 mg/kg to the day before the day of sacrifice. […] The edema volume of the left hind paw was measured by means of a volumetric apparatus (TK-101CMP, product of UNICOM). […] The plasma KS level (non-treated control group, AIA control group, and incadronate-administered group) was determined on day 35 after administration of the adjuvant, by means of a conventional KS assay kit (5D4 assay system) and through the KS assay system of the present invention. […]
# [2] = tested on: adjuvant-induced arthritis (AIA) model in rats; experiment: adjuvant-induced arthritis (AIA) model in rats, left hind paw edema volume; type: in vivo, rat; settings: incadronate 1 mg/kg s.c. once a day from day 14; day 35 after adjuvant; vs AIA control group
# Procedure: as §1
smiles,measurement,setting,value
O=P(O)(O)C(NC1CCCCCC1)P(=O)(O)O [incadronate],plasma KS level,[1],reduced as compared with the AIA control group
same,left paw volume,[2],reduced as compared with the AIA control group
